{"source": "patent US20200361871A1", "about": "(Enterprise Therapeutics Ltd., priority 2018, published 2020)", "target": "human TMEM16A (TMEM16Aabc variant) (Homo sapiens, UniProt Q5XXA6, DEL476-501, form not given)", "sequence (Q5XXA6 with tags, fused parts or gaps DEL476-501)": "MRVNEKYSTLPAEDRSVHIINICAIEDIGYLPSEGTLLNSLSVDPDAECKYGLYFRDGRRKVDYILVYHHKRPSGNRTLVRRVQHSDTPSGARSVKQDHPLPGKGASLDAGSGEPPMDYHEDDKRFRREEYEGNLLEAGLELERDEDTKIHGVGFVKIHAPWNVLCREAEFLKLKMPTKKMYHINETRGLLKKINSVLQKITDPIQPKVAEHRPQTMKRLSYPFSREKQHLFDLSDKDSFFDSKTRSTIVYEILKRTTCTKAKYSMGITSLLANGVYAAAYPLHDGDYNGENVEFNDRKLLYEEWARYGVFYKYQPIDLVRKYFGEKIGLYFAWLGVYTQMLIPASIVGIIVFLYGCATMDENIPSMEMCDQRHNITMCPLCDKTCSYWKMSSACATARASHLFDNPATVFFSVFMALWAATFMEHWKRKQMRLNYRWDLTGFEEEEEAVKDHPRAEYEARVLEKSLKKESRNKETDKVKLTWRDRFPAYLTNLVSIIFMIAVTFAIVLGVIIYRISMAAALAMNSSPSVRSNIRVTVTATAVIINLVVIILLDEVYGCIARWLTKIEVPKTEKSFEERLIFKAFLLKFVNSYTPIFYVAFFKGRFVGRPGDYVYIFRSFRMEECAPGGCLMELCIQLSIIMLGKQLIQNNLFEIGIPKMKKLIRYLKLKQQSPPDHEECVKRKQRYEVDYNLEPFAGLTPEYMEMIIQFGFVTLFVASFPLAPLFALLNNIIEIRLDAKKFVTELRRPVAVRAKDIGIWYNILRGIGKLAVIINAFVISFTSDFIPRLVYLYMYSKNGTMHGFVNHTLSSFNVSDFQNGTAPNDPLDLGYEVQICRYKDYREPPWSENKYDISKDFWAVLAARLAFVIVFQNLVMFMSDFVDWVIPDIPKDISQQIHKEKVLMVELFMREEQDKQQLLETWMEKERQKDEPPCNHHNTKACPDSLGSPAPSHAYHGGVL", "test": "Automated whole-cell patch clamp (Qpatch) TMEM16A potentiator assay in FRT cells stably expressing human TMEM16A", "format": "cell-based", "conditions": "for % Potentiation @ 3.33 μM Avg: 3.33 μM solution of test compound, percentage increase of baseline TMEM16A current; for pEC50: calculated EC50, Qpatch TMEM16A current at +70 mV", "outline": "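Potentiation was read as the rise in peak +70 mV current over baseline (%), from cumulative 5-min additions of compound. Recordings used whole-cell automated patch of FRT cells stably carrying human TMEM16Aabc, with pipette Ca2+ buffered to give ~20% maximal current. EC50 and efficacy came from concentration-response fits.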", "note": "pEC50: −log10 of the molar value.", "data": [{"smiles": "CC(C)(C)NC(=O)c1cc(NC(=O)C2CCc3cccc(O)c32)ccn1", "note": "(stereo not shown) [Example 3.10b, N-tert-Butyl-4-[(7-hydroxyindane-1-carbonyl)amino]pyridine-2-carboxamide]", "values": [{"measurement": "% Potentiation @ 3.33 μM Avg", "value": 159, "unit": "%"}, {"measurement": "pEC50", "value": 6.34}]}, {"smiles": "CC(C)(C)NC(=O)c1cc(NC(=O)Cc2c(O)c(Br)cc(Cl)c2Br)ccn1", "note": "[Example 3.11b, N-tert-Butyl-4-[[2-(2,5-dibromo-3-chloro-6-hydroxy-phenyl)acetyl]amino]pyridine-2-carboxamide]", "values": [{"measurement": "% Potentiation @ 3.33 μM Avg", "value": 168, "unit": "%"}, {"measurement": "pEC50", "value": 6.39}]}, {"smiles": "CC(C)(C)NC(=O)c1cc(NC(=O)Cc2cccc(O)c2)ccn1", "note": "[Example 3.12b, N-tert-Butyl-4-[[2-(3-hydroxyphenyl)acetyl]amino]pyridine-2-carboxamide]", "values": [{"measurement": "% Potentiation @ 3.33 μM Avg", "value": 143, "unit": "%"}, {"measurement": "pEC50", "value": 6.47}]}, {"smiles": "CC(C)(C)NC(=O)c1cc(NC(=O)Cc2cc(O)ccc2F)ccn1", "note": "[Example 3.13b, N-tert-butyl-4-[[2-(2-fluoro-5-hydroxy-phenyl)acetyl]amino]pyridine-2-carboxamide]", "values": [{"measurement": "% Potentiation @ 3.33 μM Avg", "value": 179, "unit": "%"}, {"measurement": "pEC50", "value": 6.60}]}, {"smiles": "CC(C)(C)NC(=O)c1cc(NC(=O)Cc2ccc(Cl)c(O)c2)ccn1", "note": "[Example 3.14b, N-tert-Butyl-4-[[2-(4-chloro-3-hydroxy-phenyl)acetyl]amino]pyridine-2-carboxamide]", "values": [{"measurement": "% Potentiation @ 3.33 μM Avg", "value": 251, "unit": "%"}, {"measurement": "pEC50", "value": 7.40}]}, {"smiles": "CC(C)(C)NC(=O)c1cc(NC(=O)Cc2cccc(O)c2Cl)ccn1", "note": "[Example 3.15b, N-tert-Butyl-4-[[2-(2-chloro-3-hydroxy-phenyl)acetyl]amino]pyridine-2-carboxamide]", "values": [{"measurement": "% Potentiation @ 3.33 μM Avg", "value": 127, "unit": "%"}]}, {"smiles": "CC(C)(C)NC(=O)c1cc(NC(=O)Cc2cc(O)ccc2Cl)ccn1", "note": "[Example 3.16b, N-tert-Butyl-4-[[2-(2-chloro-5-hydroxy-phenyl)acetyl]amino]pyridine-2-carboxamide]", "values": [{"measurement": "% Potentiation @ 3.33 μM Avg", "value": 167, "unit": "%"}, {"measurement": "pEC50", "value": 6.77}]}, {"smiles": "CC(C)(C)NC(=O)c1cc(NC(=O)Cc2cc(O)cc(Cl)c2)ccn1", "note": "[Example 3.17b, N-tert-Butyl-4-[[2-(3-chloro-5-hydroxy-phenyl)acetyl]amino]pyridine-2-carboxamide]", "values": [{"measurement": "% Potentiation @ 3.33 μM Avg", "value": 227, "unit": "%"}, {"measurement": "pEC50", "value": 6.92}]}, {"smiles": "CC(C)(C)NC(=O)c1cccc(NC(=O)Cc2cccc(O)c2)c1", "note": "[Example 4, N-tert-Butyl-3-[[2-[3-hydroxyphenyl]acetyl]amino]benzamide]", "values": [{"measurement": "% Potentiation @ 3.33 μM Avg", "value": 96, "unit": "%"}, {"measurement": "pEC50", "value": 5.82}]}, {"smiles": "CC(C)(C)NC(=O)c1cccc(NC(=O)Cc2n[nH]c3ccccc23)c1", "note": "[Example 4.1, N-tert-Butyl-3-[[2-(1H-indazol-3-yl)acetyl]amino]benzamide]", "values": [{"measurement": "% Potentiation @ 3.33 μM Avg", "value": 79, "unit": "%"}, {"measurement": "pEC50", "value": 5.66}]}, {"smiles": "CC(C)(C)NC(=O)c1cccc(NC(=O)Cc2c[nH]c3ccc(F)cc23)c1", "note": "[Example 4.2, N-tert-Butyl-3-[[2-(5-fluoro-1H-indol-3-yl)acetyl]amino]benzamide]", "values": [{"measurement": "% Potentiation @ 3.33 μM Avg", "value": 116, "unit": "%"}, {"measurement": "pEC50", "value": 6.18}]}, {"smiles": "CC(C)(C)NC(=O)c1cccc(NC(=O)Cc2ccccc2O)c1", "note": "[Example 4.3, N-tert-Butyl-3-[[2-(2-hydroxyphenyl)acetyl]amino] benzamide]", "values": [{"measurement": "% Potentiation @ 3.33 μM Avg", "value": 151, "unit": "%"}, {"measurement": "pEC50", "value": 5.82}]}, {"smiles": "Cc1[nH]c2c(F)cccc2c1CC(=O)Nc1cccc(C(=O)NC(C)(C)C)c1", "note": "[Example 4.4, N-tert-Butyl-3-[[2-(7-fluoro-2-methyl-1H-indol-3-yl)acetyl]amino]benzamide]", "values": [{"measurement": "% Potentiation @ 3.33 μM Avg", "value": 61, "unit": "%"}, {"measurement": "pEC50", "value": 5.38}]}, {"smiles": "CC(C)(C)NC(=O)c1cccc(NC(=O)Cc2c[nH]c3ccccc23)c1", "note": "[Example 4.5, N-tert-Butyl-3-[[2-(1H-indol-3-yl)acetyl]amino]benzamide]", "values": [{"measurement": "% Potentiation @ 3.33 μM Avg", "value": 138, "unit": "%"}, {"measurement": "pEC50", "value": 6.15}]}, {"smiles": "CC(C)(C)NC(=O)c1cccc(NC(=O)Cc2ccccc2)c1", "note": "[Example 4.6, N-tert-Butyl-3-[(2-phenylacetyl)amino]benzamide]", "values": [{"measurement": "% Potentiation @ 3.33 μM Avg", "value": 53, "unit": "%"}, {"measurement": "pEC50", "value": 5.41}]}, {"smiles": "COc1cccc(F)c1CC(=O)Nc1cccc(C(=O)NC(C)(C)C)c1", "note": "[Example 4.7, N-tert-Butyl-3-[[2-(2-fluoro-6-methoxy-phenyl)acetyl]amino]benzamide]", "values": [{"measurement": "% Potentiation @ 3.33 μM Avg", "value": 68, "unit": "%"}]}, {"smiles": "COc1ccc(F)c(F)c1CC(=O)Nc1cccc(C(=O)NC(C)(C)C)c1", "note": "[Example 4.8, N-tert-Butyl-3-[[2-(2,3-difluoro-6-methoxy-phenyl)acetyl]amino]benzamide]", "values": [{"measurement": "% Potentiation @ 3.33 μM Avg", "value": 55, "unit": "%"}, {"measurement": "pEC50", "value": 5.68}]}, {"smiles": "COc1cc(C(F)(F)F)ccc1CC(=O)Nc1cccc(C(=O)NC(C)(C)C)c1", "note": "[Example 4.9, N-tert-Butyl-3-[[2-[2-methoxy-4-(trifluoromethyl)phenyl]acetyl]amino]benzamide]", "values": [{"measurement": "% Potentiation @ 3.33 μM Avg", "value": 60, "unit": "%"}, {"measurement": "pEC50", "value": 5.33}]}, {"smiles": "CC(C)(C)NC(=O)c1cc(NC(=O)Cc2cccs2)ccn1", "note": "[Example 5, N-tert-Butyl-4-[[2-[2-thienyl]acetyl]amino]pyridine-2-carboxamide]", "values": [{"measurement": "% Potentiation @ 3.33 μM Avg", "value": 78, "unit": "%"}, {"measurement": "pEC50", "value": 6.10}]}, {"smiles": "CC(C)(C)NC(=O)c1cc(NC(=O)CC2C3CC4CC(C3)CC2C4)ccn1", "note": "(stereo not shown) [Example 5.1, 4-[[2-(2-Adamantyl)acetyl]amino]-N-tert-butyl-pyridine-2-carboxamide]", "values": [{"measurement": "% Potentiation @ 3.33 μM Avg", "value": 140, "unit": "%"}, {"measurement": "pEC50", "value": 6.06}]}, {"smiles": "COc1cc(F)ccc1CC(=O)Nc1ccnc(C(=O)NC(C)(C)C)c1", "note": "[Example 5.2, N-tert-Butyl-4-[[2-(4-fluoro-2-methoxy-phenyl)acetyl]amino]pyridine-2-carboxamide]", "values": [{"measurement": "% Potentiation @ 3.33 μM Avg", "value": 63, "unit": "%"}]}, {"smiles": "CC(C)(C)NC(=O)c1cc(NC(=O)Cc2cc(Cl)ccc2F)ccn1", "note": "[Example 5.3, N-tert-Butyl-4-[[2-(5-chloro-2-fluoro-phenyl)acetyl]amino]pyridine-2-carboxamide]", "values": [{"measurement": "% Potentiation @ 3.33 μM Avg", "value": 152, "unit": "%"}, {"measurement": "pEC50", "value": 6.06}]}, {"smiles": "CC(C)(C)NC(=O)c1cc(NC(=O)Cc2ccco2)ccn1", "note": "[Example 5.4, N-tert-Butyl-4-[[2-(2-furyl)acetyl]amino] pyridine-2-carboxamide]", "values": [{"measurement": "% Potentiation @ 3.33 μM Avg", "value": 57, "unit": "%"}]}, {"smiles": "CC(C)(C)NC(=O)c1cc(NC(=O)Cc2cccc(Cl)c2)ccn1", "note": "[Example 5.5, N-tert-Butyl-4-[[2-(3-chlorophenyl)acetyl]amino]pyridine-2-carboxamide]", "values": [{"measurement": "% Potentiation @ 3.33 μM Avg", "value": 132, "unit": "%"}, {"measurement": "pEC50", "value": 6.14}]}, {"smiles": "CC(C)(C)NC(=O)c1cc(NC(=O)Cc2c[nH]c3ccccc23)ccn1", "note": "[Example 5.6, N-tert-Butyl-4-[[2-(1H-indol-3-yl)acetyl]amino]pyridine-2-carboxamide]", "values": [{"measurement": "% Potentiation @ 3.33 μM Avg", "value": 101, "unit": "%"}, {"measurement": "pEC50", "value": 6.82}]}, {"smiles": "Cc1ccccc1CC(=O)Nc1ccnc(C(=O)NC(C)(C)C)c1", "note": "[Example 5.7, N-tert-Butyl-4-[[2-(o-tolyl)acetyl]amino]pyridine-2-carboxamide]", "values": [{"measurement": "% Potentiation @ 3.33 μM Avg", "value": 131, "unit": "%"}, {"measurement": "pEC50", "value": 5.91}]}, {"smiles": "CC(C)(C)NC(=O)c1cc(NC(=O)Cc2ccc(Cl)c(Cl)c2)ccn1", "note": "[Example 5.8, N-tert-Butyl-4-[[2-(3,4-dichlorophenyl)acetyl]amino]pyridine-2-carboxamide]", "values": [{"measurement": "% Potentiation @ 3.33 μM Avg", "value": 116, "unit": "%"}, {"measurement": "pEC50", "value": 6.34}]}, {"smiles": "CC(C)(C)NC(=O)c1cc(NC(=O)Cc2cccc(F)c2)ccn1", "note": "[Example 5.9, N-tert-Butyl-4-[[2-(3-fluorophenyl)acetyl]amino]pyridine-2-carboxamide]", "values": [{"measurement": "% Potentiation @ 3.33 μM Avg", "value": 126, "unit": "%"}, {"measurement": "pEC50", "value": 5.95}]}, {"smiles": "COc1ccc(Cl)cc1CC(=O)Nc1ccnc(C(=O)NC(C)(C)C)c1", "note": "[Example 5.10, N-tert-Butyl-4-[[2-(5-chloro-2-methoxy-phenyl)acetyl]amino]pyridine-2-carboxamide]", "values": [{"measurement": "% Potentiation @ 3.33 μM Avg", "value": 78, "unit": "%"}, {"measurement": "pEC50", "value": 5.42}]}, {"smiles": "Cc1ccc(CC(=O)Nc2ccnc(C(=O)NC(C)(C)C)c2)cc1", "note": "[Example 5.11, N-tert-Butyl-4-[[2-(p-tolyl)acetyl]amino]pyridine-2-carboxamide]", "values": [{"measurement": "% Potentiation @ 3.33 μM Avg", "value": 89, "unit": "%"}, {"measurement": "pEC50", "value": 6.77}]}, {"smiles": "CC(C)(C)NC(=O)c1cc(NC(=O)Cc2ccccc2F)ccn1", "note": "[Example 5.12, N-tert-Butyl-4-[[2-(2-fluorophenyl)acetyl]amino]pyridine-2-carboxamide]", "values": [{"measurement": "% Potentiation @ 3.33 μM Avg", "value": 100, "unit": "%"}, {"measurement": "pEC50", "value": 6.12}]}, {"smiles": "CC(C)(C)NC(=O)c1cc(NC(=O)Cc2ccc(F)cc2)ccn1", "note": "[Example 5.13, N-tert-Butyl-4-[[2-(4-fluorophenyl)acetyl]amino]pyridine-2-carboxamide]", "values": [{"measurement": "% Potentiation @ 3.33 μM Avg", "value": 94, "unit": "%"}, {"measurement": "pEC50", "value": 5.94}]}, {"smiles": "Cc1cccc(CC(=O)Nc2ccnc(C(=O)NC(C)(C)C)c2)c1", "note": "[Example 5.14, N-tert-Butyl-4-[[2-(m-tolyl)acetyl]amino]pyridine-2-carboxamide]", "values": [{"measurement": "% Potentiation @ 3.33 μM Avg", "value": 128, "unit": "%"}, {"measurement": "pEC50", "value": 6.12}]}, {"smiles": "CC(C)(C)NC(=O)c1cc(NC(=O)Cc2ccc3ncoc3c2)ccn1", "note": "[Example 5.15, 4-[[2-(1,3-Benzoxazol-6-yl)acetyl]amino]-N-tert-butyl-pyridine-2-carboxamide]", "values": [{"measurement": "% Potentiation @ 3.33 μM Avg", "value": 87, "unit": "%"}]}, {"smiles": "CC(C)(C)NC(=O)c1cc(NC(=O)Cc2cccnc2Cl)ccn1", "note": "[Example 5.16, N-tert-Butyl-4-[[2-(2-chloro-3-pyridyl)acetyl]amino]pyridine-2-carboxamide]", "values": [{"measurement": "% Potentiation @ 3.33 μM Avg", "value": 110, "unit": "%"}]}]}
